Legend:
Experiment in all cases: Test B preemergence/postemergence greenhouse plant response rating 0 to 10
Conditions in all cases: 0 to 10 scale
barley = assay type: in vivo, Hordeum vulgare
Procedure, shortened: (§1)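 Planted seeds are treated preemergence with compound dissolved in a non-phytotoxic solvent, while postemergence applications go onto plants of two to eighteen cm. Plants stay in the greenhouse twelve to sixteen days and are then rated visually relative to controls.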

barnyardgrass = assay type: in vivo, Echinochloa crus-galli
Procedure, shortened: as §1

bedstraw = assay type: in vivo, Galium aparine
Procedure, shortened: as §1

blackgrass = assay type: in vivo, Alopecurus myosuroides
Procedure, shortened: as §1

cheatgrass = assay type: in vivo, Bromus secalinus
Procedure, shortened: as §1

chickweed = assay type: in vivo, Stellaria media
Procedure, shortened: as §1

cocklebur = assay type: in vivo, Xanthium pensylvanicum
Procedure, shortened: as §1

corn = assay type: in vivo, Zea mays
Procedure, shortened: as §1

cotton = assay type: in vivo, Gossypium hirsutum
Procedure, shortened: as §1

crabgrass = assay type: in vivo, Digitaria spp.
Procedure, shortened: as §1

giant foxtail = assay type: in vivo, Setaria faberii
Procedure, shortened: as §1

lambsquarters = assay type: in vivo, Chenopodium album
Procedure, shortened: as §1

morningglory = assay type: in vivo, Ipomoea hederacea
Procedure, shortened: as §1

rape = assay type: in vivo, Brassica napus
Procedure, shortened: as §1

rice = assay type: in vivo, Oryza sativa
Procedure, shortened: as §1

sorghum = assay type: in vivo, Sorghum bicolor
Procedure, shortened: as §1

soybean = assay type: in vivo, Glycine max
Procedure, shortened: as §1

sugar beet = assay type: in vivo, Beta vulgaris
Procedure, shortened: as §1

velvetleaf = assay type: in vivo, Abutilon theophrasti
Procedure, shortened: as §1

wheat = assay type: in vivo, Triticum aestivum
Procedure, shortened: as §1

wild buckwheat = assay type: in vivo, Polygonum convolvulus
Procedure, shortened: as §1

wild oat = assay type: in vivo, Avena fatua
Procedure, shortened: as §1

purple nutsedge = assay type: in vivo, Cyperus rotundus
Procedure, shortened: as §1

## COCCN1C(=O)COc2cc(F)c(-c3nn4c(c3Cl)CCCC4)cc21 [Compound 53]
barley; POSTEMERGENCE, Rate 10 g/ha
  Plant response rating, Barley: 4
barley; POSTEMERGENCE, Rate 50 g/ha
  Plant response rating, Barley: 6
barley; PREEMERGENCE, Rate 10 g/ha
  Plant response rating, Barley: 1
barley; PREEMERGENCE, Rate 50 g/ha
  Plant response rating, Barley: 1
barnyardgrass; POSTEMERGENCE, Rate 10 g/ha
  Plant response rating, Barnyardgrass: 3
barnyardgrass; POSTEMERGENCE, Rate 50 g/ha
  Plant response rating, Barnyardgrass: 6
barnyardgrass; PREEMERGENCE, Rate 10 g/ha
  Plant response rating, Barnyardgrass: 2
barnyardgrass; PREEMERGENCE, Rate 50 g/ha
  Plant response rating, Barnyardgrass: 2
bedstraw; POSTEMERGENCE, Rate 10 g/ha
  Plant response rating, Bedstraw: 8
bedstraw; POSTEMERGENCE, Rate 50 g/ha
  Plant response rating, Bedstraw: 10
bedstraw; PREEMERGENCE, Rate 10 g/ha
  Plant response rating, Bedstraw: 8
bedstraw; PREEMERGENCE, Rate 50 g/ha
  Plant response rating, Bedstraw: 9
blackgrass; POSTEMERGENCE, Rate 10 g/ha
  Plant response rating, Blackgrass: 5
blackgrass; POSTEMERGENCE, Rate 50 g/ha
  Plant response rating, Blackgrass: 5
blackgrass; PREEMERGENCE, Rate 10 g/ha
  Plant response rating, Blackgrass: 4
blackgrass; PREEMERGENCE, Rate 50 g/ha
  Plant response rating, Blackgrass: 6
cheatgrass; POSTEMERGENCE, Rate 10 g/ha
  Plant response rating, Cheatgrass: 5
cheatgrass; POSTEMERGENCE, Rate 50 g/ha
  Plant response rating, Cheatgrass: 4
cheatgrass; PREEMERGENCE, Rate 10 g/ha
  Plant response rating, Cheatgrass: 3
cheatgrass; PREEMERGENCE, Rate 50 g/ha
  Plant response rating, Cheatgrass: 4
chickweed; POSTEMERGENCE, Rate 10 g/ha
  Plant response rating, Chickweed: 9
chickweed; POSTEMERGENCE, Rate 50 g/ha
  Plant response rating, Chickweed: 9
chickweed; PREEMERGENCE, Rate 10 g/ha
  Plant response rating, Chickweed: 10
chickweed; PREEMERGENCE, Rate 50 g/ha
  Plant response rating, Chickweed: 10
cocklebur; POSTEMERGENCE, Rate 10 g/ha
  Plant response rating, Cocklebur: 9
cocklebur; POSTEMERGENCE, Rate 50 g/ha
  Plant response rating, Cocklebur: 10
cocklebur; PREEMERGENCE, Rate 10 g/ha
  Plant response rating, Cocklebur: 0
cocklebur; PREEMERGENCE, Rate 50 g/ha
  Plant response rating, Cocklebur: 1
corn; POSTEMERGENCE, Rate 10 g/ha
  Plant response rating, Corn: 4
corn; POSTEMERGENCE, Rate 50 g/ha
  Plant response rating, Corn: 4
corn; PREEMERGENCE, Rate 50 g/ha
  Plant response rating, Corn: 0
cotton; POSTEMERGENCE, Rate 10 g/ha
  Plant response rating, Cotton: 10
cotton; POSTEMERGENCE, Rate 50 g/ha
  Plant response rating, Cotton: 10
cotton; PREEMERGENCE, Rate 10 g/ha
  Plant response rating, Cotton: 0
cotton; PREEMERGENCE, Rate 50 g/ha
  Plant response rating, Cotton: 2
crabgrass; POSTEMERGENCE, Rate 10 g/ha
  Plant response rating, Crabgrass: 3
crabgrass; POSTEMERGENCE, Rate 50 g/ha
  Plant response rating, Crabgrass: 4
crabgrass; PREEMERGENCE, Rate 10 g/ha
  Plant response rating, Crabgrass: 2
crabgrass; PREEMERGENCE, Rate 50 g/ha
  Plant response rating, Crabgrass: 6
Giant foxtail; POSTEMERGENCE, Rate 10 g/ha
  Plant response rating, Giant foxtail: 3
Giant foxtail; POSTEMERGENCE, Rate 50 g/ha
  Plant response rating, Giant foxtail: 6
Giant foxtail; PREEMERGENCE, Rate 10 g/ha
  Plant response rating, Giant foxtail: 2
Giant foxtail; PREEMERGENCE, Rate 50 g/ha
  Plant response rating, Giant foxtail: 8
lambsquarters; POSTEMERGENCE, Rate 10 g/ha
  Plant response rating, Lambsquarter: 10
lambsquarters; POSTEMERGENCE, Rate 50 g/ha
  Plant response rating, Lambsquarter: 10
lambsquarters; PREEMERGENCE, Rate 50 g/ha
  Plant response rating, Lambsquarter: 10
morningglory; POSTEMERGENCE, Rate 10 g/ha
  Plant response rating, Morningglory: 9
morningglory; POSTEMERGENCE, Rate 50 g/ha
  Plant response rating, Morningglory: 10
morningglory; PREEMERGENCE, Rate 50 g/ha
  Plant response rating, Morningglory: 10
rape; POSTEMERGENCE, Rate 10 g/ha
  Plant response rating, Rape: 10
rape; POSTEMERGENCE, Rate 50 g/ha
  Plant response rating, Rape: 10
rape; PREEMERGENCE, Rate 50 g/ha
  Plant response rating, Rape: 2
rice; POSTEMERGENCE, Rate 10 g/ha
  Plant response rating, Rice: 4
rice; POSTEMERGENCE, Rate 50 g/ha
  Plant response rating, Rice: 4
rice; PREEMERGENCE, Rate 50 g/ha
  Plant response rating, Rice: 1
sorghum; POSTEMERGENCE, Rate 10 g/ha
  Plant response rating, Sorghum: 3
sorghum; POSTEMERGENCE, Rate 50 g/ha
  Plant response rating, Sorghum: 3
sorghum; PREEMERGENCE, Rate 50 g/ha
  Plant response rating, Sorghum: 6
soybean; POSTEMERGENCE, Rate 10 g/ha
  Plant response rating, Soybean: 9
soybean; POSTEMERGENCE, Rate 50 g/ha
  Plant response rating, Soybean: 9
soybean; PREEMERGENCE, Rate 50 g/ha
  Plant response rating, Soybean: 0
Sugar beet; POSTEMERGENCE, Rate 10 g/ha
  Plant response rating, Sugar beet: 10
Sugar beet; POSTEMERGENCE, Rate 50 g/ha
  Plant response rating, Sugar beet: 10
Sugar beet; PREEMERGENCE, Rate 50 g/ha
  Plant response rating, Sugar beet: 9
velvetleaf; POSTEMERGENCE, Rate 10 g/ha
  Plant response rating, Velvetleaf: 9
velvetleaf; POSTEMERGENCE, Rate 50 g/ha
  Plant response rating, Velvetleaf: 10
velvetleaf; PREEMERGENCE, Rate 50 g/ha
  Plant response rating, Velvetleaf: 9
wheat; POSTEMERGENCE, Rate 10 g/ha
  Plant response rating, Wheat: 7
wheat; POSTEMERGENCE, Rate 50 g/ha
  Plant response rating, Wheat: 7
wheat; PREEMERGENCE, Rate 50 g/ha
  Plant response rating, Wheat: 7
Wild buckwheat; POSTEMERGENCE, Rate 10 g/ha
  Plant response rating, Wild buckwheat: 10
Wild buckwheat; POSTEMERGENCE, Rate 50 g/ha
  Plant response rating, Wild buckwheat: 10
Wild buckwheat; PREEMERGENCE, Rate 50 g/ha
  Plant response rating, Wild buckwheat: 9
Wild oat; POSTEMERGENCE, Rate 10 g/ha
  Plant response rating, Wild oat: 6
Wild oat; POSTEMERGENCE, Rate 50 g/ha
  Plant response rating, Wild oat: 7
Wild oat; PREEMERGENCE, Rate 50 g/ha
  Plant response rating, Wild oat: 8
Purple nutsedge; POSTEMERGENCE, Rate 10 g/ha
  Plant response rating, Nutsedge: 6
Purple nutsedge; POSTEMERGENCE, Rate 50 g/ha
  Plant response rating, Nutsedge: 6
Purple nutsedge; PREEMERGENCE, Rate 50 g/ha
  Plant response rating, Nutsedge: 0

Reference: patent US6358885B1, “Substituted phenylheterocyclic herbicides” (Mississippi State University, priority 1992, dated 2002)
